Data published in US20020187998A1, “Local ophthalmic agent for treatment of ocular inflammation” (Sucampo AG, priority 2001, published 2002).

Assays:
Type in all cases: in vivo, human
[1] = system: penetrating keratoplasty due to keratoconus; experiment: Patient case, FK506 eye drops after penetrating keratoplasty due to keratoconus (Example 9); conditions: 0.06% FK506 eye drops three times a day
[2] = system: inflammations caused by foreign bodies (cat hair, cat dander, pollens of a tree, ragweed or grass) instilled in the eye; experiment: Itching on the eye after ocular instillation of foreign bodies, 3 hours after FK506 eye drops (Example 1); conditions: foreign bodies 3 hours after instillation, graded 5 minutes later, score 0-4, FIG. 1
Description: In a total of four groups each having 30 persons, FK506 eye drops (0.01%, 0.06% and 0.1%) were instilled in the respective experimental groups, and placebo was instilled in the control group. Three hours after the ocular instillation, various foreign bodies (cat hair, cat dander, and pollens of a tree, ragweed or grass) were ocularly instilled in both the experimental groups and the control group, thus causing inflammations. Five minutes later, itching on the eye was graded according to five-rank scores (0-4). The decreases from the score (baseline) in instilling only foreign bodies were calculated.

[3] = system: blepharokeratoconjunctivitis; experiment: Patient case, FK506 eye drops (Example 8); conditions: 0.06% FK506 eye drops three times a day
[4] = system: Thygeson keratitis; experiment: Patient case, FK506 eye drops (Example 6); conditions: 0.06% FK506 eye drops three times a day
[5] = system: progressive Mooren's ulcer; experiment: Patient case, FK506 eye drops (Example 4); conditions: 0.06% FK506 eye drops three times a day, one patient
Description: A patient suffering from progressive Mooren's ulcer was instilled with 0.06% FK506 eye drops three times a day.

[6] = system: inflammations caused by foreign bodies (cat hair, cat dander, pollens of a tree, ragweed or grass) instilled in the eye; experiment: Conjunctival hyperemia and chemosis after ocular instillation of foreign bodies, 16 hours after final instillation (Example 2); conditions: 0.1% FK506 eye drops once a day for one week
Protocol: FK506 was ocularly instilled in the subjects once a day for one week, and the same amount of placebo was ocularly instilled in the control group. At 16 hours after the final ocular instillation, various foreign bodies (cat hair, cat dander, and pollens of a tree, ragweed or grass) were ocularly instilled in both the experimental groups and the control group, thus causing the inflammations. Ten minutes later, conjunctival hyperemia and chemosis were graded according to five-rank scores (0-4). The changes from the score (baseline) in instilling only foreign bodies were calculated.

[7] = system: progressive corneal ulcer caused by pemphigoid; experiment: Patient case, FK506 eye drops (Example 3); conditions: 0.06% FK506 eye drops three times a day, one patient
Description: A patient suffering from progressive corneal ulcer caused by pemphigoid was instilled with 0.06% FK506 eye drops three times a day.

[8] = system: chronic nummular keratitis; experiment: Patient case, FK506 eye drops (Example 5); conditions: 0.06% FK506 eye drops three times a day, one patient
Description: A patient suffering from chronic nummular keratitis was instilled with 0.06% FK506 eye drops three times a day.

[9] = system: inflammations caused by injury after penetrating keratoplasty, history of steroid glaucoma and chronic rejection; experiment: Patient case, FK506 eye drops after penetrating keratoplasty (Example 7); conditions: 0.06% FK506 eye drops three times a day
Description: As a result, the progression of inflammations caused by injury was arrested and such effects were maintained at 34 weeks later.

[10] = one patient without conventional therapy

Structure (SMILES): C=CC[C@@H]1/C=C(\C)C[C@H](C)C[C@H](OC)[C@H]2O[C@@](O)(C(=O)C(=O)N3CCCC[C@H]3C(=O)O[C@H](/C(C)=C/[C@@H]3CC[C@@H](O)[C@H](OC)C3)[C@H](C)[C@@H](O)CC1=O)[C@H](C)C[C@@H]2OC [FK506, 17-allyl-1,14-dihydroxy-12-[2-(4-hydroxy-3-methoxycyclohexyl)-1-methylvinyl]-23,25-dimethoxy-13,19,21,27-tetramethyl-11,28-dioxa-4-azatricyclo [22.3.1.0^4,9]octacos-18-ene-2,3,10,16-tetraone]
- time at which effects were maintained ([1]; one patient): 25 weeks
- improving effects [1, 10]: significant improving effects were observed
- decreases of itching score from the baseline, compared with placebo ([2]; 0.01% FK506 eye drops): decreases of itching were greater
- decreases of itching score from the baseline, compared with placebo ([2]; 0.06% FK506 eye drops): decreases of itching were greater
- decreases of itching score from the baseline, compared with placebo ([2]; 0.1% FK506 eye drops): decreases of itching were greater
- time at which effects were maintained ([3]; one patient): 18 weeks
- time until improving effects were observed ([3]; one patient): two
- improving effects [3, 10]: significant improving effects were observed
- time at which effects were maintained ([4]; one patient): 41 weeks
- time until improving effects were observed ([4]; one patient): three
- improving effects [4, 10]: significant improving effects were observed
- improving effects [5]: significant improving effects were observed
- time at which effects were maintained [5]: 41 weeks
- duration of ocular anti-inflammatory effects (antiedemic effect and anti-flare effect) [6]: at least 16 hours
- Changes of chemosis scores from the baseline, mean ± S.E. ([6]; challenge 16 hours after final instillation, graded 10 minutes later, score 0-4, p < 0.001): −0.30 ± 0.07
- Changes of conjunctival hyperemia scores from the baseline, mean ± S.E. ([6]; challenge 16 hours after final instillation, graded 10 minutes later, score 0-4, p < 0.01): −0.51 ± 0.07
- improving effects [7]: significant improving effects were observed
- time at which effects were maintained [7]: 43 weeks
- improving effects [8]: significant improving effects were observed
- time at which effects were maintained [8]: 43 weeks
- time until improving effects were observed [8]: two
- progression of inflammations caused by injury ([9]; one patient): arrested
- time at which effects were maintained ([9]; one patient): 34 weeks
- intraocular pressure increase ([9]; patient with history of steroid glaucoma): no intraocular pressure increase was observed
